Molecular target: T1, aldose reductase (Rattus norvegicus, UniProt P07943)
T1 construct: Lenses were removed from 20 eyeballs of rats and homogenized in 4 ml of 5 mM mercaptethanol; from tissue; host or cells: rat lens, 10,000 rpm supernatant of homogenate
Assay: Aldose reductase-inhibiting activity (absorbance change at 340 nm, homogenate of rat lenses as enzyme source, glyceroaldehyde substrate, NADPH coenzyme)
Format: biochemical
Conditions: rat lens homogenate, 10 mM D,L-glyceroaldehyde, 0.4M Li2SO4, initial one minute
Description: The change in absorbance at 340 nm for initial one minute was measured, and the inhibiting activity was determined.
Lenses were removed from 20 eyeballs of rats and homogenized in 4 ml of 5 mM mercaptethanol using Glass-Teflon Homogenate. The obtained homogenate was centrifuged at 4° C. and 10,000 rpm for 20 minutes, and resulting supernatant was used as the enzyme source.

Row | IC50 (mass concentration) [nM] | IC50 (molar value in parentheses) [nM] | Ic50 (mass concentration) [ng/mL] | SMILES
1 | 8.33 | 8.2 | – | O=C(O)CCC1(O)OC2=CC(=O)c3c(O)cc(O)cc3C2=C1c1ccc(O)cc1 (stereo not drawn) [RF-3192 A]
2 | – | 4.2 | 1.6 | O=C(O)CCC1(O)OC2=CC(=O)c3c(O)cc(O)cc3C2=C1c1ccccc1 (stereo not drawn) [RF-3192 B]
3 | – | 340 | 130 | O=C1C=C2OC3(O)CC(=O)c4c(O)cc(O)cc4C3=C2c2cc(O)cc(O)c21 (stereo not drawn) [RF-3192 C]

From US5284870A, “Aldose reductase inhibitor” (Shionogi Seiyaku Kabushiki Kaisha, priority 1992, dated 1994)
